ChEMBL document CHEMBL1145372, “(Phenylpiperidinyl)cyclohexylsulfonamides: development of alpha1a/1d-selective adrenergic receptor antagonists for the treatment of benign prostatic hyperplasia/lower urinary tract symptoms (BPH/LUTS)” (Bioorg Med Chem Lett, 2007)

Tests used:
[1] = target: T1, Alpha-1D adrenergic receptor (Homo sapiens, UniProt P25100); test: Binding affinity to human cloned adrenergic alpha-1d receptor
T1 sequence (P25100 whole entry): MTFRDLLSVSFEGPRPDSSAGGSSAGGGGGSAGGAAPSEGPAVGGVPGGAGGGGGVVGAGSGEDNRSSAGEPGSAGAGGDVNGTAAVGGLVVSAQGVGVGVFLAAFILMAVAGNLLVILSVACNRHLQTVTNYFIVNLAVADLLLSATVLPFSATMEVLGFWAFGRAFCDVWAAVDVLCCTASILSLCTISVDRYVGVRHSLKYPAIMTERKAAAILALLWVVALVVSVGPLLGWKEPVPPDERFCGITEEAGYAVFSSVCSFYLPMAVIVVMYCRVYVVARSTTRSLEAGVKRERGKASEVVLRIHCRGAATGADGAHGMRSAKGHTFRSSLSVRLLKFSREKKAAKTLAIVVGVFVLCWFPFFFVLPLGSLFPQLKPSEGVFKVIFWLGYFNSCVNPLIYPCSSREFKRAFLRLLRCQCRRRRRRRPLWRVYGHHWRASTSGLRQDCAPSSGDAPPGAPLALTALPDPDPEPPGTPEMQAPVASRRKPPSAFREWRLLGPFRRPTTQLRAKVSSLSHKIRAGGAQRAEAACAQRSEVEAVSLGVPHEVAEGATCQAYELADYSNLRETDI

[2] = target: T2, Alpha-1A adrenergic receptor (Homo sapiens, UniProt P35348); test: Binding affinity to human cloned adrenergic alpha-1a receptor
T2 sequence (P35348 whole entry): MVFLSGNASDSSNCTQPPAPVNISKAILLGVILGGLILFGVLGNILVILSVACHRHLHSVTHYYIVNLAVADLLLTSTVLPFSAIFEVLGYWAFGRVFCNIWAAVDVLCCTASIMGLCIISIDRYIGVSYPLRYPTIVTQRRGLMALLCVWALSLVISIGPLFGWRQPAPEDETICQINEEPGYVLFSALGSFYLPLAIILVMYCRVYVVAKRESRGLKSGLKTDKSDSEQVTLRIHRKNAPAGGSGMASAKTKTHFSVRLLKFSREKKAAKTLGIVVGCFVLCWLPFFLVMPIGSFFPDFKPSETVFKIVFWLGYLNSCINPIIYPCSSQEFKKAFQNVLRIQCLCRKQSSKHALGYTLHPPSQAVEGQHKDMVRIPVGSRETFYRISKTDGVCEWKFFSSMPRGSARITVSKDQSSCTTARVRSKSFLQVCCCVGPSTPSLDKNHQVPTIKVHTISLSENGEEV

D(2) dopamine receptor = D(2) dopamine receptor (Homo sapiens, UniProt P14416); test: Binding affinity for dopamine D2 receptor
[3] = target: T3, Alpha-1B adrenergic receptor (Homo sapiens, UniProt P35368); test: Binding affinity to human cloned adrenergic alpha-1b receptor
T3 sequence (P35368 whole entry): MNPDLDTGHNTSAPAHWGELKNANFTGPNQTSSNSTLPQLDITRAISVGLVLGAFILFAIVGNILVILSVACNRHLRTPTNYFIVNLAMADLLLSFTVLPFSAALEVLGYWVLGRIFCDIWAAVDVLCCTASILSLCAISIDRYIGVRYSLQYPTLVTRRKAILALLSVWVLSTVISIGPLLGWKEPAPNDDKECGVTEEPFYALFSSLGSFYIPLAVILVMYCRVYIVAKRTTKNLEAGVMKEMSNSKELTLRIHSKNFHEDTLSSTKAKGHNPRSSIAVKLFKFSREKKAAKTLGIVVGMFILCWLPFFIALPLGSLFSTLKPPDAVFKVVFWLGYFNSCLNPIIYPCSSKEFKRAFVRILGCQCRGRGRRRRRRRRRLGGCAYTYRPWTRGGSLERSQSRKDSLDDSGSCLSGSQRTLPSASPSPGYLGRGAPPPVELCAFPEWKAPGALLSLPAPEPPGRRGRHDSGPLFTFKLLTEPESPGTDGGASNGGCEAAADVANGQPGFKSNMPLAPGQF

D(2) dopamine receptor, sequence (P14416 whole entry): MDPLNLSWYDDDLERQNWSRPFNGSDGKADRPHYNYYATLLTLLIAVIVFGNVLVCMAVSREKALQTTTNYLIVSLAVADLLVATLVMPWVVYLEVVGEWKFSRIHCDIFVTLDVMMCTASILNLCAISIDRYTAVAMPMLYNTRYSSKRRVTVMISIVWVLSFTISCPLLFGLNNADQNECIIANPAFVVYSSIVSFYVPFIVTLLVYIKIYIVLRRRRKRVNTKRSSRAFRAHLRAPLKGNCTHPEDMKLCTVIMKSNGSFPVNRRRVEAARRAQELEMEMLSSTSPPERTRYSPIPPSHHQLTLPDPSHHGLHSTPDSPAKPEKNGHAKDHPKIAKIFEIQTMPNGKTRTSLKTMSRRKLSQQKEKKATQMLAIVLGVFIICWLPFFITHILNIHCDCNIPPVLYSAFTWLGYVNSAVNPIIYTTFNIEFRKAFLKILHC

Ki [2]	Ki (D(2) dopamine receptor)	SMILES	Ki [1]	Ki [3]
	154 nM	COc1ccc(Cl)cc1S(=O)(=O)N[C@H]1CC[C@H](N2CCC(c3ccccc3OC3CC3)CC2)CC1		
	187 nM	O=S(=O)(N[C@H]1CC[C@@H](N2CCC(c3ccccc3OC3CC3)CC2)CC1)c1cc(Cl)ccc1F		
	159 nM	O=S(=O)(N[C@H]1CC[C@H](N2CCC(c3ccccc3OC3CC3)CC2)CC1)c1cc(Cl)ccc1F		
	71 nM	O=S(=O)(N[C@H]1CC[C@H](N2CCC(c3ccccc3OC3CC3)CC2)CC1)c1ccc2c(c1)OCO2		
1.8 nM	111 nM	COc1ccc(S(=O)(=O)N[C@H]2CC[C@@H](N3CCC(c4ccccc4OCC(F)(F)F)CC3)CC2)cc1OC	2.2 nM	123 nM
21 nM	83 nM	COc1ccc(S(=O)(=O)N[C@H]2CC[C@H](N3CCC(c4ccccc4OCC(F)(F)F)CC3)CC2)cc1OC	23 nM	368 nM
5.9 nM	78 nM	O=S(=O)(N[C@H]1CC[C@@H](N2CCC(c3ccccc3OCC(F)(F)F)CC2)CC1)c1cc(Cl)ccc1F		
4.8 nM	37 nM	O=S(=O)(N[C@H]1CC[C@H](N2CCC(c3ccccc3OCC(F)(F)F)CC2)CC1)c1cc(Cl)ccc1F		
	85 nM	O=S(=O)(N[C@H]1CC[C@@H](N2CCC(c3ccccc3OCC(F)(F)F)CC2)CC1)c1cccc(OC(F)F)c1		
	129 nM	O=S(=O)(N[C@H]1CC[C@H](N2CCC(c3ccccc3OCC(F)(F)F)CC2)CC1)c1cccc(OC(F)F)c1		
38 nM	104 nM	O=S(=O)(N[C@H]1CC[C@H](N2CCC(c3ccccc3OCC(F)(F)F)CC2)CC1)c1ccc(OC(F)F)cc1		
	284 nM	COc1ccc(S(=O)(=O)N[C@H]2CC[C@H](N3CCC(c4ccccc4OCCF)CC3)CC2)cc1OC		
31 nM	88 nM	COc1ccc(S(=O)(=O)N[C@H]2CC[C@H](N3CCC(c4ccccc4OCC(F)F)CC3)CC2)cc1OC		
	104 nM	COc1ccc(S(=O)(=O)N[C@H]2CC[C@H](N3CCC(c4ccc(F)cc4OC(C)C)CC3)CC2)cc1OC		
	178 nM	COc1ccc(S(=O)(=O)N[C@H]2CC[C@@H](N3CCC(c4cc(F)ccc4OC(C)C)CC3)CC2)cc1OC		
	144 nM	COc1ccc(S(=O)(=O)N[C@H]2CC[C@@H](N3CCC(c4ccccc4OC4CC4)CC3)CC2)cc1OC		
	154 nM	O=S(=O)(N[C@H]1CC[C@@H](N2CCC(c3ccccc3OCC(F)(F)F)CC2)CC1)c1ccc(OC(F)F)cc1		
	276 nM	COc1ccc(S(=O)(=O)N[C@H]2CC[C@@H](N3CCC(c4ccccc4OCC(F)F)CC3)CC2)cc1OC		
	55 nM	COc1ccc(S(=O)(=O)N[C@H]2CC[C@H](N3CCC(c4ccccc4OC(C)C)CC3)CC2)cc1OC		
	129 nM	COc1ccc(Cl)cc1S(=O)(=O)N[C@H]1CC[C@@H](N2CCC(c3ccccc3OC3CC3)CC2)CC1		
16 nM	66 nM	O=S(=O)(N[C@H]1CC[C@@H](N2CCC(c3ccccc3OC3CC3)CC2)CC1)c1ccc2c(c1)OCO2		
	79 nM	CC(C)Oc1ccccc1C1CCN([C@H]2CC[C@@H](NS(=O)(=O)c3ccc(F)c(F)c3)CC2)CC1		
10 nM	82 nM	COc1ccc(Cl)cc1S(=O)(=O)N[C@H]1CC[C@H](N2CCC(c3ccccc3OCC(F)(F)F)CC2)CC1		
	94 nM	COc1ccc(S(=O)(=O)N[C@H]2CC[C@H](N3CCC(c4cc(F)ccc4OC(C)C)CC3)CC2)cc1OC		
	57 nM	O=S(=O)(N[C@H]1CC[C@@H](N2CCC(c3ccccc3OCC(F)(F)F)CC2)CC1)c1ccc2c(c1)OCCO2		

SMILES	Ki [2]	Ki (D(2) dopamine receptor)	Ki [1]	Ki [3]
COc1ccc(S(=O)(=O)N[C@H]2CC[C@H](N3CCC(c4ccccc4OC4CC4)CC3)CC2)cc1OC	11 nM	133 nM	34 nM	
O=S(=O)(N[C@H]1CC[C@H](N2CCC(c3ccccc3OCC(F)(F)F)CC2)CC1)c1ccc2c(c1)OCCO2		23 nM		91 nM
COc1ccc(S(=O)(=O)N[C@H]2CC[C@@H](N3CCC(c4ccc(F)cc4OC(C)C)CC3)CC2)cc1OC		106 nM	12 nM	
CC(C)Oc1ccccc1C1CCN([C@H]2CC[C@H](NS(=O)(=O)c3ccc(F)c(F)c3)CC2)CC1	1.4 nM	79 nM	87 nM	1380 nM
COc1ccc(S(=O)(=O)N[C@H]2CC[C@@H](N3CCC(c4ccccc4OC(C)C)CC3)CC2)cc1OC	2.2 nM	144 nM	0.77 nM	
COc1ccc(Cl)cc1S(=O)(=O)N[C@H]1CC[C@@H](N2CCC(c3ccccc3OCC(F)(F)F)CC2)CC1		69 nM	1.6 nM	
COc1ccc(S(=O)(=O)N[C@H]2CC[C@@H](N3CCC(c4ccccc4OCCF)CC3)CC2)cc1OC	8.5 nM	201 nM	5.5 nM	401 nM
